# Laboratory results reported in patent US4808607A, “Imidazole analogs of mevalonolactone and derivatives thereof for use in inhibiting cholesterol biosynthesis and lowering blood cholesterol level” (Sandoz Pharm. Corp., priority 1987, dated 1989).
# Where two headings read alike, the source gives them in different places.
# Assays:
# [1] = tested on: 3β-hydroxysterol synthesis (cholesterol biosynthesis); test: Test B. In Vivo Cholesterol Biosynthesis Inhibition Test; parameters: species or system rat (male Wistar Royal Hart); details: Rattus norvegicus, read-out: ED50 in Test B (dose producing 50% inhibition of 3β-hydroxysterol synthesis)
# Protocol: Test B. In Vivo Cholesterol Biosynthesis Inhibition Test: In vivo studies utilize male Wistar Royal Hart rats weighing 150±20 g. which have been kept for 7-10 days on an altered light cycle (6:30 A.M. - 6:30 P.M. dark) housed two per cage and fed powdered Purina Rat Chow and water ad libitum. Three hours before the diurnal maximum of cholesterol synthesis at mid-dark, the rats are administered orally the test substance (e.g., 0.001-200 mg./kg. body weight) dissolved or as a suspension in 0.5% carboxymethylcellulose in a volume of 1 ml./100 g. body weight. Controls receive vehicle alone. One hour after receiving the test substance (or the vehicle alone), the rats are injected intraperitoneally with about 25 μCi/100 g. body weight of sodium [1-^14 C]acetate 1-3 mCi/mmol. Two hours after mid-dark, blood samples are obtained under sodium hexobarbitol anesthesia, and the serum is separated by centrifugation. […] The [^14 C]digitonides are then counted by liquid scintillation spectrometry. After correcting for efficiencies, the results are calculated in nCi (nanocuries) of 3β-hydroxysterol formed per 100 ml. of serum.
# HMG-CoA reductase = target: T1, HMG-CoA reductase (Rattus norvegicus, UniProt P51639); test: Test A. In Vitro Microsomal Assay of HMG-CoA Reductase Inhibition; type: biochemical, rat (male Sprague-Dawley)
# T1 construct: In the assay the microsomes are the source of the HMG-CoA reductase enzyme; from tissue; host or cells: liver microsomes of male Sprague-Dawley rats
# T1 sequence (P51639 1-887): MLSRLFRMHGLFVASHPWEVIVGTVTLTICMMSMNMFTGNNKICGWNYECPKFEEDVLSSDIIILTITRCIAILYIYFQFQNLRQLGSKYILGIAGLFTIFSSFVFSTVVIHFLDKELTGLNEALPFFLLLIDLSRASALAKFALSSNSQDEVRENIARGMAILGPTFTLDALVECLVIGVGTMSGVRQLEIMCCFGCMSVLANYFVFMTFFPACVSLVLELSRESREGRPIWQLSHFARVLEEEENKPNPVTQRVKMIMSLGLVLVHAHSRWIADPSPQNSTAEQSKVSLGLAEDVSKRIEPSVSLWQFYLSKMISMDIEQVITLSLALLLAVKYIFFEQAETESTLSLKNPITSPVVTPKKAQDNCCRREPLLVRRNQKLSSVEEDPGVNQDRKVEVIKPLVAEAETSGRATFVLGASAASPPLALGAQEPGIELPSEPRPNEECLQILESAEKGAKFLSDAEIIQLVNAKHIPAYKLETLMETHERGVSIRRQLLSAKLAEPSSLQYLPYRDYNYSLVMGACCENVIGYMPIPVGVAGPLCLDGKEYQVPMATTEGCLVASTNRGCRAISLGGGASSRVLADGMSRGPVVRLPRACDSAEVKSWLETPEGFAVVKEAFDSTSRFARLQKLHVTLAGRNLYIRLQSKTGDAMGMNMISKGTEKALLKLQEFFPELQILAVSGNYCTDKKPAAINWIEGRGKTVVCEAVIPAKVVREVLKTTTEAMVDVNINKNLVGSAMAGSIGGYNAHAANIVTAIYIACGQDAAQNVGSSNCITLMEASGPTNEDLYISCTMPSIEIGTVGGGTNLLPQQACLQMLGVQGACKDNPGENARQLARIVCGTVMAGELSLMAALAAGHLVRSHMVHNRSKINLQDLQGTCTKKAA
# Protocol: The compounds of Formula I and the pharmaceutically acceptable acid addition salts thereof are competitive inhibitors of 3-hydroxy-3-methylglutaryl coenzyme A (HMG-CoA) reductase, the rate limiting enzyme in cholesterol biosynthesis, and, therefore, they are inhibitors of cholesterol biosynthesis.
# Test A. In Vitro Microsomal Assay of HMG--CoA Reductase Inhibition:
# 200 μl. aliquots (1.08-1.50 mg./ml.) of rat liver microsomal suspensions, freshly prepared from male SpragueDawley rats (150-225 g. body weight), in Buffer A with 10 mmol. dithiothreitol are incubated with 10 μl. of a solution of the test substance in dimethylacetamide and assayed for HMG--CoA reductase activity as described in Ackerman et al., J. Lipid Res. 18, 408-413 (1977), the concentration of the test substance in the assay system being 0.0001-2,000 μmolar. In the assay the microsomes are the source of the HMG-CoA reductase enzyme which catalyzes the reduction of HMG-CoA to mevalonate. The assay employs a chloroform extraction to separate the product, [^14 C]mevalonolactone, formed by the HMG-CoA reductase reduction of the substrate, [^14 C]HMG-CoA. [^3 H]mevalonolactone is added as an internal reference. Inhibition of HMG-CoA reductase is calculated from the decrease in specific activity ([^14 C/^3 H]mevalonate) of test groups compared to controls.
# The IC50 is the concentration of the test substance in the assay system calculated or observed to produce a 50% inhibition of HMG-CoA reductase activity.
# [2] = oral, single dose, male rats, [1-14C]acetate i.p. 1 h after dose, serum 3β-hydroxysterols
# [3] = rat liver microsomes, [14C]HMG-CoA substrate, test substance in dimethylacetamide, read-out: IC50 in Test A (50% inhibition of HMG-CoA reductase activity)
SMILES,IC50 (HMG-CoA reductase; [3]),"ED50 [1, 2]","ED50 ([1]; po, 1 h)",IC50 (HMG-CoA reductase)
"CC[C@H](C)C(=O)O[C@H]1CCC=C2C=C[C@H](C)[C@H](CC[C@@H]3C[C@@H](O)CC(=O)O3)[C@H]21 [Compactin, reference compound]",1010 nM,3.5 mg/kg,–,–
"CCC(C)C(=O)OC1CC(C)C=C2C=CC(C)C(CCC3CC(O)CC(=O)O3)C21 (stereo not shown) [Mevinolin, reference compound]",–,–,0.38 mg/kg,140 nM

# Second part, led by results:
IC50 (HMG-CoA reductase; [3]),SMILES,"ED50 [1, 2]","ED50 ([1]; po, 1 h)",IC50 (HMG-CoA reductase)
2.6 nM,"CC(C)c1nc(-c2ccccc2)n(-c2ccc(F)cc2)c1/C=C/[C@@H](O)C[C@@H](O)CC(=O)O (relative stereo) [Example 2, Sodium (±)-erythro-(E)-3,5-dihydroxy-7-[1'-(4""-fluorophenyl)-4'-(1""-methylethyl)-2'-phenyl-1H-imidazol-5'-yl]hept-6-enoate]",0.025 mg/kg,–,–
36 nM,CC(C)c1nc(-c2ccccc2)n(-c2ccccc2)c1/C=C/[C@@H](O)C[C@@H](O)CC(=O)O (relative stereo) [Example 10],0.028 mg/kg,–,–
2 nM,"CC(C)c1nc(-c2ccccc2)n(-c2ccc(F)cc2)c1/C=C/[C@@H](O)C[C@@H](O)CC(=O)O [Example 2A, Sodium (3R,5S)-(E)-3,5-dihydroxy-7-[1'-(4""-fluorophenyl)-4'-(1""-methylethyl)-2'-phenyl-1H-imidazol-5'-yl]hept-6-enoate]",0.02 mg/kg,–,–
